Data published in patent publication US20030055046A1, “Novel pyrido cyclohexenyl phenyl carboxamides tocolytic oxytocin receptor antagonists” (Wyeth, priority 2001, published 2003).
Where a name gives a salt, the structure may show the parent alone.

Biological target: T1, human vasopressin V1a receptor subtype (Homo sapiens, UniProt P37288)
T1 construct: host or cells: CHO cells, stably transfected (pZeoSV vector for the Thibonnier cells)
Test: Vasopressin binding in CHO cell membranes expressing human vasopressin V1a subtype receptors
Conditions: [3H]Manning ligand; for IC50: value in parentheses
Description: Vasopressin Binding in Chinese Hamster Ovary Cell Membranes Expressing Human Vasopressin V1a Subtype Receptors
Chinese hamster ovary cells (CHO cells) stably transfected with the human vasopressin V1a subtype receptors were either obtained from Biosignal Inc., 1744 rue Williams, Montreal, Quebec, Canada or obtained from M. Thibonnier, Case Western Reserve University School of Medicine, Cleveland, Ohio.
A. Passaging and Amplification of Cells:
CHO cells transfected with the human vasopressin V1a subtype receptors obtained from M. Thibonnier (pZeoSV vector) are allowed to grow to confluency (approx. >90%) in T-150 flasks under sterile conditions, in a cell culture medium consisting of F-12 Nutrient Mixture (HAM) with L-glutamine (Gibco Cat.# 11765-054) containing 15 mM HEPES (Gibco Cat.# 15630-080), 1% antibiotic/antimycotic (add 5 mL 100×, Gibco Cat.# 15240-062 per 500 mL F-12), 250 μg/mL Zeocin (add 1.25 mL of 100 mg/mL Invitrogen R-250-01 per 500 mL F-12) and 10% Fetal Bovine Serum (Qualified, heat inactivated, Gibco Cat.# 16140-063). The medium is removed by aspiration and the cells are washed with 10 mL of Hank's Balanced Salt solution (Gibco Cat.# 14175-095). The salt solution is removed by aspiration and the cells are trypsinized with 5 mL of trypsin-EDTA (0.05% trypsin, 0.53 mM EDTA-4Na, Gibco Cat.# 25300-070) for 1 min. The trypsin is removed by aspiration and the cells dislodged by tapping. Cell Culture medium (eg, 30 mL for 1:30 split) is immediately added and mixed well to inactivate trypsin. 1 mL of detached cells is added to new culture flasks containing fresh cell culture medium (eg, into 25 mL per T-150 flask), and mixed gently. The cells are incubated at 37° C. in 5% CO2. The medium is changed at 3 to 4 days interval (or as appropriate). The cells grow to confluency (approx. >75%-95%) within 7-8 days. All steps are done under sterile conditions.
The cells are washed twice gently with Hank's Balanced Salt solution (e.g,. use 10 mL per T-150 flask). The excess is removed and the cells are bathed for 15-30 min. in an enzyme-free Cell Dissociation Buffer (e.g. use 8 mL Hank's Based, Gibco Cat.# 13150-016 per T-150 flask) until the cells are loosened. The contents are transferred to centrifuge tubes (50 mL) kept an ice bath. All subsequent steps are done at 4° C. The tubes are centrifuged at 300×g for 15 min (1380 rpm on SORVAL, Model RT6000D, using the rotor for 50 mL tubes). The supernatant is discarded and the cells suspended in homogeneizing buffer (10 mM Tris-HCl containing 0.25 M sucrose and 1 mM EDTA, pH 7.4) ensuring that the volume of the buffer is about ten times the volume of the cell pellet. The cells are pooled into a centrifuge tube (50 mL) and homogenized with Polytron at setting 6 for 10 sec. The homogenate is transferred into a Potter-Elvjehm homogenizer and homogenized with 3 strokes. The homogenate is centrifuged at 1500×g for 10 min at 4° C. (3100 rpm using SORVAL, model RT6000D, using the rotor for 50 mL tubes). The pellet is discarded. The supernatant is centrifuged at 100,000×g for 60 min. at 4° C. (Beckman L8-80M ultracentrifuge; spin at 37,500 rpm with rotor type 70 Ti for 50 mL tubes; 38,000 rpm with type […] for 15 mL tubes; or 35,800 rpm with rotor type 45Ti). The supernatant is discarded and the pellet suspended in 3 to 4 mL of Tris buffer (50 mM TRIS-HCl, pH 7.4). The protein content is estimated by the Bradford or Lowry method. The volume of the membrane suspension is adjusted with the membrane buffer (50 mM Tris-HCl containing 0.1% BSA and 0.1 mM PMSF) to give 3.0 mg/mL (or as appropriate) of protein. The membranes are aliquoted and stored at −70° C.
C. Radioligand Binding Assay: […]

T1 sequence (P37288 whole entry): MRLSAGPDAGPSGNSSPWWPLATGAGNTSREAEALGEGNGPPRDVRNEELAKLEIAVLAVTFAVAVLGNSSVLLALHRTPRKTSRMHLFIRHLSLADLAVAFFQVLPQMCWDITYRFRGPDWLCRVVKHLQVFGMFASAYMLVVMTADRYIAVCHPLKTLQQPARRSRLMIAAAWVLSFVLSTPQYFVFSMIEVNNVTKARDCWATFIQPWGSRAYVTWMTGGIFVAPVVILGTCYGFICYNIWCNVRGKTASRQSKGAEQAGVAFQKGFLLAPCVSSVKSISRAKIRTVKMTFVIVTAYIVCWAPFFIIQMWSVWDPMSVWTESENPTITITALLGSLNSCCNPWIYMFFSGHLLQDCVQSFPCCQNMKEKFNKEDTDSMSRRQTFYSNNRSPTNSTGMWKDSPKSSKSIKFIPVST

| SMILES | IC50 | V1a % inhibition @ 100 nM |
| --- | --- | --- |
| COc1cc(C2=CCCCC2)c(Cl)cc1C(=O)N1Cc2ccc(C(=O)N(C)Cc3cccnc3)n2Cc2ccccc21 [Example 1, 10-(5-Chloro-4-cyclohex-1-en-1-yl-2-me3thoxybenzoyl)-N-methyl-N-(pyridin-3-ylmethyl)-10,11-dihydro-5H-pyrrolo [2,1-c][1,4]benzodiazepine-3-carboxamide] | 1.09 µM | – |
| COc1cc(C2=CCCCC2)c(Cl)cc1C(=O)N1Cc2ccc(C(=O)N(C)Cc3cccnc3)n2Cc2ccccc21 [Example 2, 10-(5-Chloro-4-cyclohex-1-en-1-yl-2-methoxybenzoyl)-N-methyl-N-(pyridin-3-ylmethyl)-10,11-dihydro-5H-pyrrolo[2,1-c][1,4]benzodiazepine-3-carboxamide L-(+)-tartaric acid salt hemihydrate] | 1.32 µM | – |
| CC1=C(c2ccc(C(=O)N3Cc4ccc(C(=O)N(C)Cc5cccnc5)n4Cc4ccccc43)cc2C)CCC[C@H]1O [Example 3, 10-[4-((3R)-3-Hydroxy-2-methyl-cyclohex-1-en-1-yl)-3-methyl-benzoyl]-10,11-dihydro-5H-pyrrolo[2,1-c][1,4]benzodiazepine-3-carboxylic acid methyl-pyridin-3-yl methyl-amide] | – | 41% |
| CC1=C(c2ccc(C(=O)N3Cc4ccc(C(=O)N(C)Cc5cccnc5)n4Cc4ccccc43)cc2C)CCC[C@H]1O.O=C(O)C(O)C(O)C(=O)O [Example 4, 10-[4-((3R)-3-Hydroxy-2-methyl-cyclohex-1-en-1-yl)-3-methyl-benzoyl]-10,11-dihydro-5H-pyrrolo[2,1-c][1,4]benzodiazepine-3-carboxylic acid methyl-pyridin-3-yl methyl-amide L-(+)-tartaric acid salt] | – | 61% |
| Cc1cc(C(=O)N2Cc3ccc(C(=O)NCc4ccccn4)n3Cc3ccccc32)ccc1C1=CCCCC1 [Example 5, 10-[4-(1-Cyclohex-1-en-1-yl)-3-methylbenzoyl]-N-(2-pyridinylmethyl)-10,11-dihydro-5H-pyrrolo[2,1-c][1,4]benzodiazepine-3-carboxamide] | – | 18% |
| Cc1cc(C(=O)N2Cc3ccc(C(=O)NCc4cccnc4)n3Cc3ccccc32)ccc1C1=CCCCC1 [Example 6, 10-[4-(1-Cyclohex-1-en-1-yl)-3-methylbenzoyl]-N-(3-pyridinylmethyl)-10,11-dihydro-5H-pyrrolo[2,1-c][1 ,4]benzodiazepine-3-carboxamide] | – | 6% |
| Cc1cc(C(=O)N2Cc3ccc(C(=O)NCCc4ccccn4)n3Cc3ccccc32)ccc1C1=CCCCC1 [Example 7, 10-[4-(1-Cyclohex-1-en-1-yl)-3-methylbenzoyl]-N-[2-(2-pyridinyl)ethyl]-10,11-pyrrolo[2,1-c][1,4]benzodiazepine-3-carboxamide] | – | 13% |
| Cc1cc(C(=O)N2Cc3ccc(C(=O)N(C)CCc4ccccn4)n3Cc3ccccc32)ccc1C1=CCCCC1 [Example 8, 10-[4-(1-Cyclohex-1-en-1-yl)-3-methylbenzoyl]-N-methyl-N-[2-(2-pyridinyl)ethyl]-10,11-dihydro-5H-pyrrolo[2,1-c][1 ,4]benzodiazepine-3-carboxamide] | – | 43% |
| Cc1cc(C(=O)N2Cc3ccc(C(=O)N4CCN(c5ccccn5)CC4)n3Cc3ccccc32)ccc1C1=CCCCC1 [Example 9, {10-[4-(1-Cyclohex-1-en-1-yl)-3-methylbenzoyl]-10,11-dihydro-5H-pyrrolo[2,1-c][1,4]benzodiazepin-3-yl}[4-(2-pyridinyl)-1-piperazinyl]methanone] | – | 5% |
| Cc1cc(C(=O)N2Cc3ccc(C(=O)NCc4ccncc4)n3Cc3ccccc32)ccc1C1=CCCCC1 [Example 10, 10-[4-(1-Cyclohex-1-en-1-yl)-3-methylbenzoyl]-N-(4-pyridinylmethyl)-10,11-dihydro-5H-pyrrolo[2,1-c][1,4]benzodiazepine-3-carboxamide] | – | 13% |
| Cc1cc(C(=O)N2Cc3ccc(C(=O)N(C)Cc4cccnc4)n3Cc3ccccc32)ccc1C1=CCCCC1 [Example 11, 10-[4-(1-Cyclohex-1-en-1-yl)-3-methylbenzoyl]-N-methyl-N-(3-pyridinylmethyl)-10,11-dihydro-5H-pyrrolo[2,1-c][1,4]benzodiazepine-3-carboxamide] | – | 54% |
| Cc1cc(C(=O)N2Cc3ccc(C(=O)N4CCN(c5ccncc5)CC4)n3Cc3ccccc32)ccc1C1=CCCCC1 [Example 12, {10-[4-(1-Cyclohex-1-en-1-yl)-3-methylbenzoyl]-10,11-dihydro-5H-pyrrolo[2,1--c][1,4]benzodiazepin-3-yl}[4-(4-pyridinyl)-1-piperazinyl]methanone] | – | 73% |
| Cc1cc(C(=O)N2Cc3ccc(C(=O)N(C)CCc4ccncc4)n3Cc3ccccc32)ccc1C1=CCCCC1 [Example 13, 10-[4-(1-Cyclohex-1-en-1-yl)-3-methylbenzoyl]-N-methyl-N-[2-(4-pyridinyl)ethyl]-10,11-dihydro-5H-pyrrolo[2,1-c][1,4]benzodiazepine-3-carboxamide] | – | 51% |
